Among the data in publication PMC4774911, “Biochemical Screening of Five Protein Kinases from Plasmodium falciparum against 14,000 Cell-Active Compounds” (PLoS ONE, 2016) are Kd values, retold here.

Among the targets are CDK9 (Homo sapiens, UniProt P50750); CSNK2A1 (Homo sapiens, UniProt P68400); PCTK2 (Homo sapiens, UniProt Q00537); SIK2 (Homo sapiens, UniProt Q9H0K1).
Common to all, as to experiment: biochemical
What all share (parameters): endogenous in cells; host or cells: K562 cell extract; species or system K562 (extract); replicate k of n = 2 (each experiment ID is one independent experiment; two experiment IDs per compound)
What all share (conditions): read-out: KDapp

The target of the next test is T1, EPHB4 (Homo sapiens, UniProt P54760).
T1 sequence (P54760 1-987): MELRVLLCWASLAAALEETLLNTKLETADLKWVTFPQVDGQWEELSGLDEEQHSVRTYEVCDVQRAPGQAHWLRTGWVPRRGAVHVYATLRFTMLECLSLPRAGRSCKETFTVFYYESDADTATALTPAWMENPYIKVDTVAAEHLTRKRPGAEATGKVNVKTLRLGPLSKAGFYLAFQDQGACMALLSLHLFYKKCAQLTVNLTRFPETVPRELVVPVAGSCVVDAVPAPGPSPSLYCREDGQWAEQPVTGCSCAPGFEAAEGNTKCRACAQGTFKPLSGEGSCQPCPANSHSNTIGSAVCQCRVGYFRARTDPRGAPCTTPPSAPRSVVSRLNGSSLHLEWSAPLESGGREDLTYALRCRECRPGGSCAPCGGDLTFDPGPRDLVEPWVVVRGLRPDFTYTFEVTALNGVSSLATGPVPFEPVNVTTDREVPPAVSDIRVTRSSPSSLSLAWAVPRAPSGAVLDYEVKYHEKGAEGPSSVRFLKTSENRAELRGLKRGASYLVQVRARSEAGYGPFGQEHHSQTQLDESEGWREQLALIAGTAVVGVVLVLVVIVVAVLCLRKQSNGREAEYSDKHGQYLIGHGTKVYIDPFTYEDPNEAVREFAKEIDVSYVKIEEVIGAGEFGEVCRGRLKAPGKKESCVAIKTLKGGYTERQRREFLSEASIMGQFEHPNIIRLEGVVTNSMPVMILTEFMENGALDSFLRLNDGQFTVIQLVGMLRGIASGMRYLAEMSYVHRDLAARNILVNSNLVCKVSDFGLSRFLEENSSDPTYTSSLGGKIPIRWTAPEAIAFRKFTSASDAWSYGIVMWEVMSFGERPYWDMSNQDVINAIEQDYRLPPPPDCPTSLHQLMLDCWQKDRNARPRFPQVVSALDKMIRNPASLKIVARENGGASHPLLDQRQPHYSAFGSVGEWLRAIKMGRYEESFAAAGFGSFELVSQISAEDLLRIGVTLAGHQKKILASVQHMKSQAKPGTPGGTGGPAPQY

The next test deals with T2, NEK1 (Homo sapiens, UniProt Q96PY6).
T2 sequence (Q96PY6 1-1258): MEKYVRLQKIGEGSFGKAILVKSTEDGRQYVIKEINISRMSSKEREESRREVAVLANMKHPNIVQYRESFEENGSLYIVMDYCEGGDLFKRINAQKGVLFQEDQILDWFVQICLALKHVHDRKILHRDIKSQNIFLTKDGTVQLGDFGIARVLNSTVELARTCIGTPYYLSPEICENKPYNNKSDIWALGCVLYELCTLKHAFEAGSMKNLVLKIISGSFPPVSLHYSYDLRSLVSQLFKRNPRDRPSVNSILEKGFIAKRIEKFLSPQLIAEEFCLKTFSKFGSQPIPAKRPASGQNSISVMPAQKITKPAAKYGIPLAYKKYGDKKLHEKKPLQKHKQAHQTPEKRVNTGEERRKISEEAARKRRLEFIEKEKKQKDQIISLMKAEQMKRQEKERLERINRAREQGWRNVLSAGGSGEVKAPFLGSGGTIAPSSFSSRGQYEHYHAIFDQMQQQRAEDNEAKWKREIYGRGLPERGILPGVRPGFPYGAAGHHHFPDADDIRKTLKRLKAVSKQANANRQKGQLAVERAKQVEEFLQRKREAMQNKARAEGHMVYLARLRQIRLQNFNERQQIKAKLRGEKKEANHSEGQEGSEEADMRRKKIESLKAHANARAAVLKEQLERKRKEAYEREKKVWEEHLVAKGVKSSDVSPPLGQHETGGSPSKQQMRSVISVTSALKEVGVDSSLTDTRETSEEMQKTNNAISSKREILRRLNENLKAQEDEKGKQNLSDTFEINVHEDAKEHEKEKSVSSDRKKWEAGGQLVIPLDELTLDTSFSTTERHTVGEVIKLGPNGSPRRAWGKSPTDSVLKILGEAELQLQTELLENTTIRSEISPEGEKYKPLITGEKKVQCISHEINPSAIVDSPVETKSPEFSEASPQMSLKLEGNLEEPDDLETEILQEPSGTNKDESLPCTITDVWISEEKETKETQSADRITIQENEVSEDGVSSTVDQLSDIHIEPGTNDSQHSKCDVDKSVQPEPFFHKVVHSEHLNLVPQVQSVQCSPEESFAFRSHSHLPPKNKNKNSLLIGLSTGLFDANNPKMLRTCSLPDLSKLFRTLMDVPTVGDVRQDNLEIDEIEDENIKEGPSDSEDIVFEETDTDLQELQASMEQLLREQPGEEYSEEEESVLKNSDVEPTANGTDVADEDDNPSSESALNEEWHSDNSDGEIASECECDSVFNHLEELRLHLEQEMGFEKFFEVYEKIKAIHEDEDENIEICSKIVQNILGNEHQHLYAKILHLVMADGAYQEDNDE

Molecules are shown by their SMILES. Where “and” joins values, the source holds several entries; their conditions need not be identical. Equal values may be shown once.

SIK2, sequence (Q9H0K1 whole entry): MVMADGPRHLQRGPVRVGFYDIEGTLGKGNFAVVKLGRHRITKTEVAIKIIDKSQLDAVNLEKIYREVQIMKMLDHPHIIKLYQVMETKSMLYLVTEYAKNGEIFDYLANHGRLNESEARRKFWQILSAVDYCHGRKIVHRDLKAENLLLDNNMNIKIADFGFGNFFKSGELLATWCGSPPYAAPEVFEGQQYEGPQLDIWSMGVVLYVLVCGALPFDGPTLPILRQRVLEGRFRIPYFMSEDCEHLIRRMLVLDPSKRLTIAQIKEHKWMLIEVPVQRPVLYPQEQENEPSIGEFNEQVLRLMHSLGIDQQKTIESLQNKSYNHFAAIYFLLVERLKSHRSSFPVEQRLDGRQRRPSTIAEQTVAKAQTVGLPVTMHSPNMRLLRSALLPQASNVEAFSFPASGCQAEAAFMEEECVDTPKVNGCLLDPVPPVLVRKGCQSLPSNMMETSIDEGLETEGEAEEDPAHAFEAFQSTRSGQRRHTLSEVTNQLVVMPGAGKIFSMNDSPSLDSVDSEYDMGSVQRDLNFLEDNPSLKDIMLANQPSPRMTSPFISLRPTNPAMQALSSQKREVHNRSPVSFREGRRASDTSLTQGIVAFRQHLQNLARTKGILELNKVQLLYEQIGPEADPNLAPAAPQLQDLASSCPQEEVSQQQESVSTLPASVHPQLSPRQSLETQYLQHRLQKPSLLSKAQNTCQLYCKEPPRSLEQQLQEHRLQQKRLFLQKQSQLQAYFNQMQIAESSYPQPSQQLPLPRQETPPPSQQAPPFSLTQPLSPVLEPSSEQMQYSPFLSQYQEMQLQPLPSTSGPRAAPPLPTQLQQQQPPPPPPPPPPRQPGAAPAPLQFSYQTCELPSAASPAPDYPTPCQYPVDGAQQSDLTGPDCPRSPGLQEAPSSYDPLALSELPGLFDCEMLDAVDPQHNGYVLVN
PCTK2, sequence (Q00537 whole entry): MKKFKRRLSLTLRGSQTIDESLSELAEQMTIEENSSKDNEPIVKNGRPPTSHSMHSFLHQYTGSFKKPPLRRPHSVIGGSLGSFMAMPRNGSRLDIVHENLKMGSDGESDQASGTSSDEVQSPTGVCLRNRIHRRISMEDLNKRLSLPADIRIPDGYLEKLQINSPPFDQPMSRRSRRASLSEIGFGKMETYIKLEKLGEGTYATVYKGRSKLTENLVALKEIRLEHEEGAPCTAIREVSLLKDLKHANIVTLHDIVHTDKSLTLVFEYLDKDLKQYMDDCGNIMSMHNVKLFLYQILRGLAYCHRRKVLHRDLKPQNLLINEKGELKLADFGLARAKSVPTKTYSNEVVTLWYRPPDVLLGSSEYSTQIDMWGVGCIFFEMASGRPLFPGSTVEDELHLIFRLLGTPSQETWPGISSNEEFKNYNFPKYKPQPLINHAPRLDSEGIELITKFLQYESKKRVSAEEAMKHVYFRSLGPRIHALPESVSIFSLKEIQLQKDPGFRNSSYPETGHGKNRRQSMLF
CDK9, sequence (P50750 whole entry): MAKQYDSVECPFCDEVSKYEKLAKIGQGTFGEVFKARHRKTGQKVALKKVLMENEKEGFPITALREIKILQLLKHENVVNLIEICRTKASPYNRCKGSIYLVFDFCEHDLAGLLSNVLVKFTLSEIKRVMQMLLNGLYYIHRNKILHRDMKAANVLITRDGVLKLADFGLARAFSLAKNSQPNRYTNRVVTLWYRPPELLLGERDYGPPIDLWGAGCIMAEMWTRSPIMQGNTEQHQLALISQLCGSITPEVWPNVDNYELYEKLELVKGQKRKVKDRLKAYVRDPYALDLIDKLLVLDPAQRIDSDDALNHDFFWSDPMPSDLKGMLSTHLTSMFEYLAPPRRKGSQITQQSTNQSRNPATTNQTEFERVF
CSNK2A1, sequence (P68400 whole entry): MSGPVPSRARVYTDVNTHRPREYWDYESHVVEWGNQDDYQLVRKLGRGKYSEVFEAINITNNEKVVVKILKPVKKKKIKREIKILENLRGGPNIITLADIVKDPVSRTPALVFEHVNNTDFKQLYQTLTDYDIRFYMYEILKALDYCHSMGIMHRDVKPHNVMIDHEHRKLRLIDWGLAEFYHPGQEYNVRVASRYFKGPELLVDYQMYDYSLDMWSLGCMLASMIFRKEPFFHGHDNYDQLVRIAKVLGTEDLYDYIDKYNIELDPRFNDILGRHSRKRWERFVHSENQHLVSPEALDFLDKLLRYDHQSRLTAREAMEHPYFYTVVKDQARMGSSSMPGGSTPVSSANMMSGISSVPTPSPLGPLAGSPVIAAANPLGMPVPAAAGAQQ

For the compound `CN1CCN(c2ccc(Nc3ncc(C#N)c(Nc4ccccc4C(N)=O)n3)cc2)CC1.Cl` [TCMDC-134116], the Kd on CDK9 was 0.576 µM and 0.393 µM; at CSNK2A1 it was 0.0235 µM; at EPHB4, 2.11 µM; at NEK1 it was 0.404 µM and 0.333 µM; on PCTK2, 0.0577 µM and 0.0835 µM; on SIK2 it was 0.0106 µM.

`Cl.NCC1(c2nc(-c3ccc(Cl)c(O)c3)c(-c3ccncc3)[nH]2)CCCCC1` [TCMDC-141154]: the Kd was 2.6 µM on EPHB4; 0.173 µM and 0.161 µM at SIK2.

For the compound `CN(C)CC(O)COc1ccc(Nc2ncc([N+](=O)[O-])c(Nc3ccccc3O)n2)cc1.O=C(O)C(F)(F)F` (stereo not drawn) [TCMDC-141399], the Kd was 2.78 µM and 3.82 µM at CDK9; 0.0635 µM at CSNK2A1; 4.54 µM on NEK1; 1.14 µM and 1.06 µM at PCTK2.
